# Experimental data reported in ChEMBL document CHEMBL5104092, “An insight into the recent development of the clinical candidates for the treatment of malaria and their target proteins” (Eur J Med Chem, 2021).
# What was measured:
# Plasmodium falciparum [1] = assay: Antimalarial activity against chloroquine sensitive Plasmodium falciparum 3D7 incubated for 72 hrs by SYBR green I assay; format: functional, organism-based; settings: 3D7, 72 h
# Plasmodium falciparum [2] = assay: Antimalarial activity against chloroquine resistant Plasmodium falciparum Dd2 incubated for 72 hrs by malaria SYBR green I based assay; format: functional, organism-based; settings: Dd2, 72 h
# Plasmodium falciparum [3] = assay: Antimalarial activity against chloroquine resistant Plasmodium falciparum K1 infected in human erythrocytes by microplate fluorometric detection method; format: functional, organism-based
# Plasmodium falciparum [4] = assay: Antimalarial activity against chloroquine sensitive Plasmodium falciparum T96 infected in human erythrocytes by microplate fluorometric detection method; format: functional, organism-based
# [5] = Cytotoxicity against human HEK293 cells; format: toxicity, cell-based
# Plasmodium falciparum [6] = assay: Antimalarial activity against Plasmodium falciparum Dd2; format: functional, organism-based
# HepG2 = assay: Cytotoxicity against human HepG2 cells; format: functional, cell-based
# A549 = assay: Cytotoxicity against human A549 cells; format: functional
# Plasmodium falciparum [7] = assay: Antimalarial activity against multidrug resistant Plasmodium falciparum Dd2 incubated for 72 hrs by malaria SYBR green I nucleic acid staining dye based fluorescence assay; format: functional, organism-based; settings: Dd2, 72 h
# Plasmodium falciparum [8] = assay: Antimalarial activity against chloroquine sensitive Plasmodium falciparum 3D7 incubated for 72 hrs by malaria SYBR green I nucleic acid staining dye based fluorescence assay; format: functional, organism-based; settings: 3D7, 72 h
# Plasmodium falciparum [9] = assay: Antimalarial activity against multidrug resistant Plasmodium falciparum K1 incubated for 72 hrs by malaria SYBR green I nucleic acid staining dye based fluorescence assay; format: functional, organism-based; settings: K1, 72 h
smiles,measurement,setting,value
C=C(c1ccc(C)cc1C)C1COC2(CCC(Nc3ccccc3)CC2)OO1 (stereo unspecified),IC50,Plasmodium falciparum [1],19.6 nM
CN(C)CCNc1cc(/C=C/c2ccncc2)nc2ccccc12,IC50,Plasmodium falciparum [2],33 nM
COC(=O)CC[C@@H](C)[C@H]1CCC2C3CC[C@@H]4CC5(CC[C@]4(C)C3C[C@H](OC(C)=O)[C@@]21C)OOC(C)(C)OO5 (stereo partly specified),EC50,Plasmodium falciparum [3],3 nM
same,EC50,Plasmodium falciparum [4],131 nM
COc1ccc(NC(=O)N2CCCCN3C[C@H](c4ccc(C#Cc5ccccc5)cc4)[C@@H]3C2)cc1,CC50,[5],> 50000 nM
same,EC50,Plasmodium falciparum [6],15 nM
same,CC50,HepG2,> 50000 nM
same,CC50,A549,38000 nM
C[C@@H]1CCC2[C@@H](C)[C@H](OC(=O)CCC(=O)NCCNc3ccnc4cc(Cl)ccc34)O[C@@H]3O[C@]4(C)CC[C@@H]1[C@@]23OO4 (stereo partly specified),EC50,Plasmodium falciparum [7],1 nM
same,EC50,Plasmodium falciparum [8],2.7 nM
same,EC50,Plasmodium falciparum [9],0.78 nM
